Each compound was assayed on MPP-89 (assay: cells). Settings: Homo sapiens, MPP-89.
Format: functional, cell-based, Homo sapiens
Description: SANGER: Inhibition of human MPP-89 cell growth in a cell viability assay.
With CCCCCCCCCCCC1=C(O)C(=O)C=C(O)C1=O [EMBELIN] the IC50 was 25.1 µM.

The compounds below were run on HOP-62 (assay: cells). Settings: Homo sapiens, HOP-62.
Format: functional, cell-based, Homo sapiens
Description: SANGER: Inhibition of human HOP-62 cell growth in a cell viability assay.
In the case of CCCCCCCCCCCC1=C(O)C(=O)C=C(O)C1=O [EMBELIN], the IC50 is reported as 5.69 µM.

Each compound was assayed on KGN (assay: cells). Settings: Homo sapiens, KGN.
Format: functional, cell-based, Homo sapiens
Description: SANGER: Inhibition of human KGN cell growth in a cell viability assay.
CCCCCCCCCCCC1=C(O)C(=O)C=C(O)C1=O [EMBELIN] showed an IC50 of 3.22 µM.

Each compound was assayed on KS-1 (assay: cells). Settings: Homo sapiens.
Format: functional, cell-based
Description: SANGER: Inhibition of human KS-1 cell growth in a cell viability assay.
CCCCCCCCCCCC1=C(O)C(=O)C=C(O)C1=O [EMBELIN] showed an IC50 of 14.5 µM.

These compounds were tested on TGBC24TKB (assay: cells). Settings: Homo sapiens.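 Also: growth inhibition of human TGBC24TKB cells, read out with a cell viability assay.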
Format: functional, cell-based
Description: SANGER: Inhibition of human TGBC24TKB cell growth in a cell viability assay.
With CCCCCCCCCCCC1=C(O)C(=O)C=C(O)C1=O [EMBELIN] the IC50 was 26.5 µM.

The compounds below were run on TE-10 (assay: cells). Settings: Homo sapiens, TE-10.
Format: functional, cell-based, Homo sapiens
Description: SANGER: Inhibition of human TE-10 cell growth in a cell viability assay.
For CCCCCCCCCCCC1=C(O)C(=O)C=C(O)C1=O [EMBELIN], the IC50 was 13.3 µM.

What follows are compounds tested on COLO-684 (assay: cells). Settings: Homo sapiens, COLO-684.
Format: functional, cell-based, Homo sapiens
Description: SANGER: Inhibition of human COLO-684 cell growth in a cell viability assay.
In the case of CCCCCCCCCCCC1=C(O)C(=O)C=C(O)C1=O [EMBELIN], the IC50 is reported as 20.6 µM.

What follows are compounds tested on MMAC-SF (assay: cells). Settings: Homo sapiens.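 Also: growth inhibition of human MMAC-SF cells, read out with a cell viability assay.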
Format: functional, cell-based
Description: SANGER: Inhibition of human MMAC-SF cell growth in a cell viability assay.
Work on CCCCCCCCCCCC1=C(O)C(=O)C=C(O)C1=O [EMBELIN] yielded an IC50 of 26.8 µM.

What follows are compounds tested on GI-1 (assay: cells). Settings: Homo sapiens, GI-1.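 Also: growth inhibition of human GI-1 cells, measured with a cell viability readout.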
Format: functional, cell-based, Homo sapiens
Description: SANGER: Inhibition of human GI-1 cell growth in a cell viability assay.
CCCCCCCCCCCC1=C(O)C(=O)C=C(O)C1=O [EMBELIN] gave an IC50 of 3.76 µM.

The compounds below were run on BB49-HNC (assay: cells). Settings: Homo sapiens, BB49-HNC.
Format: functional, cell-based, Homo sapiens
Description: SANGER: Inhibition of human BB49-HNC cell growth in a cell viability assay.
Work on CCCCCCCCCCCC1=C(O)C(=O)C=C(O)C1=O [EMBELIN] yielded an IC50 greater than 32 µM.

These compounds were tested on MOLT-16 (assay: cells). Settings: Homo sapiens, MOLT-16.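 Also: growth inhibition of human MOLT-16 cells, read out with a cell viability assay.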
Format: functional, cell-based, Homo sapiens
Description: SANGER: Inhibition of human MOLT-16 cell growth in a cell viability assay.
CCCCCCCCCCCC1=C(O)C(=O)C=C(O)C1=O [EMBELIN] was tested, and the IC50 was 11.9 µM.

The compounds below were run on MZ2-MEL (assay: cells). Settings: Homo sapiens, MZ2-MEL.
Format: functional, cell-based, Homo sapiens
Description: SANGER: Inhibition of human MZ2-MEL cell growth in a cell viability assay.
Compound CCCCCCCCCCCC1=C(O)C(=O)C=C(O)C1=O [EMBELIN] has an IC50 of 6.33 µM.

Each compound was assayed on OVCAR-4 (assay: cells). Settings: Homo sapiens, OVCAR-4.
Format: functional, cell-based, Homo sapiens
Description: SANGER: Inhibition of human OVCAR-4 cell growth in a cell viability assay.
Compound CCCCCCCCCCCC1=C(O)C(=O)C=C(O)C1=O [EMBELIN] has an IC50 of 12.3 µM.

These compounds were tested on GI-ME-N (assay: cells). Settings: Homo sapiens, GI-ME-N.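 Also: growth inhibition of human GI-ME-N cells, read out with a cell viability assay.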
Format: functional, cell-based, Homo sapiens
Description: SANGER: Inhibition of human GI-ME-N cell growth in a cell viability assay.
Work on CCCCCCCCCCCC1=C(O)C(=O)C=C(O)C1=O [EMBELIN] yielded an IC50 greater than 32 µM.

What follows are compounds tested on NCI-H2126 (assay: cells). Settings: Homo sapiens, NCI-H2126.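 Also: growth inhibition of the cancer cell line, determined with a cell viability readout.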
Format: functional, cell-based, Homo sapiens
Description: SANGER: Inhibition of human NCI-H2126 cell growth in a cell viability assay.
Work on CCCCCCCCCCCC1=C(O)C(=O)C=C(O)C1=O [EMBELIN] yielded an IC50 of 27.9 µM.

The compounds below were run on GT3TKB (assay: cells). Settings: Homo sapiens, GT3TKB.
Format: functional, cell-based, Homo sapiens
Description: SANGER: Inhibition of human GT3TKB cell growth in a cell viability assay.
CCCCCCCCCCCC1=C(O)C(=O)C=C(O)C1=O [EMBELIN] showed an IC50 of 3.62 µM.

The compounds below were run on C2BBe1 (assay: cells). Settings: Homo sapiens, C2BBe1.
Format: functional, cell-based, Homo sapiens
Description: SANGER: Inhibition of human C2BBe1 cell growth in a cell viability assay.
With CCCCCCCCCCCC1=C(O)C(=O)C=C(O)C1=O [EMBELIN] the IC50 was 13.9 µM.

The compounds below were run on no-11 (assay: cells). Settings: Homo sapiens.
Format: functional, cell-based, Homo sapiens
Description: SANGER: Inhibition of human no-11 cell growth in a cell viability assay.
Compound CCCCCCCCCCCC1=C(O)C(=O)C=C(O)C1=O [EMBELIN] has an IC50 of 9.88 µM.

The compounds below were run on NB6 (assay: cells). Settings: Homo sapiens, NB6.
Format: functional, cell-based, Homo sapiens
Description: SANGER: Inhibition of human NB6 cell growth in a cell viability assay.
For CCCCCCCCCCCC1=C(O)C(=O)C=C(O)C1=O [EMBELIN], the IC50 was greater than 32 µM.

The compounds below were run on NCI-H747 (assay: cells). Settings: Homo sapiens, NCI-H747.
Format: functional, cell-based, Homo sapiens
Description: SANGER: Inhibition of human NCI-H747 cell growth in a cell viability assay.
Work on CCCCCCCCCCCC1=C(O)C(=O)C=C(O)C1=O [EMBELIN] yielded an IC50 of 14.3 µM.

These compounds were tested on NCI-H1395 (assay: cells). Settings: Homo sapiens, NCI-H1395.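 Also: cell viability assay read-out quantifying reduced proliferation of human NCI-H1395 cells.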
Format: functional, cell-based, Homo sapiens
Description: SANGER: Inhibition of human NCI-H1395 cell growth in a cell viability assay.
CCCCCCCCCCCC1=C(O)C(=O)C=C(O)C1=O [EMBELIN] showed an IC50 greater than 32 µM.

What follows are compounds tested on BE-13 (assay: cells). Settings: Homo sapiens, BE-13.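 Also: growth inhibition of human BE-13 cells, measured with a cell viability assay.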
Format: functional, cell-based, Homo sapiens
Description: SANGER: Inhibition of human BE-13 cell growth in a cell viability assay.
In the case of CCCCCCCCCCCC1=C(O)C(=O)C=C(O)C1=O [EMBELIN], the IC50 is reported as 22.9 µM.

What follows are compounds tested on GB-1 (assay: cells). Settings: Homo sapiens, GB-1.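 Also: growth of GB-1 cells judged by a viability assay, IC50 marks the concentration inhibiting growth.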
Format: functional, cell-based, Homo sapiens
Description: SANGER: Inhibition of human GB-1 cell growth in a cell viability assay.
For CCCCCCCCCCCC1=C(O)C(=O)C=C(O)C1=O [EMBELIN], the IC50 was 5.23 µM.

These compounds were tested on RXF 393 (assay: cells). Settings: Homo sapiens, RXF 393.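 Also: growth inhibition of human RXF 393 cells, read out with a cell viability assay.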
Format: functional, cell-based, Homo sapiens
Description: SANGER: Inhibition of human RXF393 cell growth in a cell viability assay.
Work on CCCCCCCCCCCC1=C(O)C(=O)C=C(O)C1=O [EMBELIN] yielded an IC50 greater than 32 µM.

Each compound was assayed on LS-1034 (assay: cells). Settings: Homo sapiens, LS-1034.
Format: functional, cell-based, Homo sapiens
Description: SANGER: Inhibition of human LS-1034 cell growth in a cell viability assay.
CCCCCCCCCCCC1=C(O)C(=O)C=C(O)C1=O [EMBELIN] showed an IC50 greater than 32 µM.

Each compound was assayed on COR-L88 (assay: cells). Settings: Homo sapiens, COR-L88.
Format: functional, cell-based, Homo sapiens
Description: SANGER: Inhibition of human COR-L88 cell growth in a cell viability assay.
Work on CCCCCCCCCCCC1=C(O)C(=O)C=C(O)C1=O [EMBELIN] yielded an IC50 greater than 32 µM.

The compounds below were run on DMS-114 (assay: cells). Settings: Homo sapiens, DMS-114.
Format: functional, cell-based, Homo sapiens
Work on CCCCCCCCCCCC1=C(O)C(=O)C=C(O)C1=O [EMBELIN] yielded an IC50 greater than 32 µM.

These compounds were tested on OCUB-M (assay: cells). Settings: Homo sapiens.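 Also: growth inhibition of the cancer cell line, read out through a cell viability assay.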
Format: functional, cell-based
Description: SANGER: Inhibition of human OCUB-M cell growth in a cell viability assay.
Compound CCCCCCCCCCCC1=C(O)C(=O)C=C(O)C1=O [EMBELIN] has an IC50 of 5.32 µM.

Each compound was assayed on RCC10RGB (assay: cells). Settings: Homo sapiens, RCC10RGB.
Format: functional, cell-based, Homo sapiens
Description: SANGER: Inhibition of human RCC10RGB cell growth in a cell viability assay.
In the case of CCCCCCCCCCCC1=C(O)C(=O)C=C(O)C1=O [EMBELIN], the IC50 is reported as greater than 32 µM.

What follows are compounds tested on ALL-PO (assay: cells). Settings: Homo sapiens, ALL-PO.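 Also: growth inhibition of ALL-PO cells, read out by a cell viability assay.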
Format: functional, cell-based, Homo sapiens
Description: SANGER: Inhibition of human ALL-PO cell growth in a cell viability assay.
Compound CCCCCCCCCCCC1=C(O)C(=O)C=C(O)C1=O [EMBELIN] has an IC50 of 3.65 µM.

Each compound was assayed on KARPAS-45 (assay: cells). Settings: Homo sapiens, KARPAS-45.
Format: functional, cell-based, Homo sapiens
Description: SANGER: Inhibition of human KARPAS-45 cell growth in a cell viability assay.
Work on CCCCCCCCCCCC1=C(O)C(=O)C=C(O)C1=O [EMBELIN] yielded an IC50 of 15.6 µM.

The compounds below were run on NB5 (assay: cells). Settings: Homo sapiens, NB5.
Format: functional, cell-based, Homo sapiens
Description: SANGER: Inhibition of human NB5 cell growth in a cell viability assay.
CCCCCCCCCCCC1=C(O)C(=O)C=C(O)C1=O [EMBELIN] showed an IC50 of 22.4 µM.

Each compound was assayed on VA-ES-BJ (assay: cells). Settings: Homo sapiens, VA-ES-BJ.
Format: functional, cell-based, Homo sapiens
Description: SANGER: Inhibition of human VA-ES-BJ cell growth in a cell viability assay.
CCCCCCCCCCCC1=C(O)C(=O)C=C(O)C1=O [EMBELIN] was tested, and the IC50 was 10.7 µM.

Each compound was assayed on DJM-1 (assay: cells). Settings: Homo sapiens, DJM-1.
Format: functional, cell-based, Homo sapiens
Description: SANGER: Inhibition of human DJM-1 cell growth in a cell viability assay.
With CCCCCCCCCCCC1=C(O)C(=O)C=C(O)C1=O [EMBELIN] the IC50 was 8.8 µM.

What follows are compounds tested on SH-4 (assay: cells). Settings: Homo sapiens.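 Also: growth inhibition of SH-4 cells, read out with a cell viability assay.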
Format: functional, cell-based
Description: SANGER: Inhibition of human SH-4 cell growth in a cell viability assay.
Work on CCCCCCCCCCCC1=C(O)C(=O)C=C(O)C1=O [EMBELIN] yielded an IC50 of 24.9 µM.

These compounds were tested on Lu-65 (assay: cells). Settings: Homo sapiens, Lu-65.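 Also: growth inhibition of Lu-65 cancer cells, read out by a cell viability assay.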
Format: functional, cell-based, Homo sapiens
Description: SANGER: Inhibition of human LU-65 cell growth in a cell viability assay.
CCCCCCCCCCCC1=C(O)C(=O)C=C(O)C1=O [EMBELIN] was tested, and the IC50 was greater than 32 µM.

What follows are compounds tested on SNU-C2B (assay: cells). Settings: Homo sapiens.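 Also: cell viability readout used to measure compound-driven suppression of SNU-C2B cell proliferation, IC50 marking half-maximal growth inhibition.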
Format: functional, cell-based
Description: SANGER: Inhibition of human SNU-C2B cell growth in a cell viability assay.
Compound CCCCCCCCCCCC1=C(O)C(=O)C=C(O)C1=O [EMBELIN] has an IC50 greater than 32 µM.

These compounds were tested on EW-16 (assay: cells). Settings: Homo sapiens, EW-16.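 Also: growth inhibition of human EW-16 cells, read out as cell viability.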
Format: functional, cell-based, Homo sapiens
Description: SANGER: Inhibition of human EW-16 cell growth in a cell viability assay.
CCCCCCCCCCCC1=C(O)C(=O)C=C(O)C1=O [EMBELIN] showed an IC50 of 4.27 µM.

What follows are compounds tested on LAN-6 (assay: cells). Settings: Homo sapiens, LAN-6.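 Also: growth inhibition of LAN-6 cells, determined with a cell viability assay.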
Format: functional, cell-based, Homo sapiens
Description: SANGER: Inhibition of human LAN-6 cell growth in a cell viability assay.
Compound CCCCCCCCCCCC1=C(O)C(=O)C=C(O)C1=O [EMBELIN] has an IC50 greater than 32 µM.

These compounds were tested on NCI-H1304 (assay: cells). Settings: Homo sapiens, NCI-H1304.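 Also: growth inhibition of the cancer cell line, measured in a cell viability assay.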
Format: functional, cell-based, Homo sapiens
Description: SANGER: Inhibition of human NCI-H1304 cell growth in a cell viability assay.
CCCCCCCCCCCC1=C(O)C(=O)C=C(O)C1=O [EMBELIN] was tested, and the IC50 was greater than 32 µM.

The compounds below were run on MC116 (assay: cells). Settings: Homo sapiens, MC116.
Format: functional, cell-based, Homo sapiens
Description: SANGER: Inhibition of human MC116 cell growth in a cell viability assay.
CCCCCCCCCCCC1=C(O)C(=O)C=C(O)C1=O [EMBELIN] gave an IC50 of 2.82 µM.

These compounds were tested on KE-37 (assay: cells). Settings: Homo sapiens, KE-37.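 Also: growth inhibition of KE-37 cells, read out with a cell viability assay.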
Format: functional, cell-based, Homo sapiens
Description: SANGER: Inhibition of human KE-37 cell growth in a cell viability assay.
Compound CCCCCCCCCCCC1=C(O)C(=O)C=C(O)C1=O [EMBELIN] has an IC50 of 3.44 µM.

The compounds below were run on NKM-1 (assay: cells). Settings: Homo sapiens, NKM-1.
Format: functional, cell-based, Homo sapiens
Description: SANGER: Inhibition of human NKM-1 cell growth in a cell viability assay.
CCCCCCCCCCCC1=C(O)C(=O)C=C(O)C1=O [EMBELIN] was tested, and the IC50 was greater than 32 µM.

These compounds were tested on HL-60 (assay: cells). Settings: Homo sapiens, HL-60.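 Also: growth inhibition of human HL-60 cells, read out with a cell viability assay.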
Format: functional, cell-based, Homo sapiens
Description: SANGER: Inhibition of human HL-60 cell growth in a cell viability assay.
For CCCCCCCCCCCC1=C(O)C(=O)C=C(O)C1=O [EMBELIN], the IC50 was 8.85 µM.

What follows are compounds tested on GR-ST (assay: cells). Settings: Homo sapiens, GR-ST.
Format: functional, cell-based, Homo sapiens
Description: SANGER: Inhibition of human GR-ST cell growth in a cell viability assay.
With CCCCCCCCCCCC1=C(O)C(=O)C=C(O)C1=O [EMBELIN] the IC50 was 5.8 µM.

These compounds were tested on SF-126 (assay: cells). Settings: Homo sapiens, SF-126.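 Also: growth inhibition of human SF126 cells, read out with a cell viability assay.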
Format: functional, cell-based, Homo sapiens
Description: SANGER: Inhibition of human SF126 cell growth in a cell viability assay.
For CCCCCCCCCCCC1=C(O)C(=O)C=C(O)C1=O [EMBELIN], the IC50 was 10.3 µM.

These compounds were tested on EW-11 (assay: cells). Settings: Homo sapiens, EW-11.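 Also: growth inhibition of human EW-11 cells, measured with a cell viability assay.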
Format: functional, cell-based, Homo sapiens
Description: SANGER: Inhibition of human EW-11 cell growth in a cell viability assay.
CCCCCCCCCCCC1=C(O)C(=O)C=C(O)C1=O [EMBELIN] gave an IC50 greater than 32 µM.

These compounds were tested on SK-MEL-1 (assay: cells). Settings: Homo sapiens, SK-MEL-1.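 Also: growth inhibition of human SK-MEL-1 cells, read out by a cell viability assay.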
Format: functional, cell-based, Homo sapiens
Description: SANGER: Inhibition of human SK-MEL-1 cell growth in a cell viability assay.
CCCCCCCCCCCC1=C(O)C(=O)C=C(O)C1=O [EMBELIN] gave an IC50 greater than 32 µM.

These compounds were tested on GOTO (assay: cells). Settings: Homo sapiens, GOTO.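 Also: growth inhibition of GOTO cells, read out by a cell viability assay.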
Format: functional, cell-based, Homo sapiens
Description: SANGER: Inhibition of human GOTO cell growth in a cell viability assay.
Compound CCCCCCCCCCCC1=C(O)C(=O)C=C(O)C1=O [EMBELIN] has an IC50 of 23.6 µM.

These compounds were tested on KLE (assay: cells). Settings: Homo sapiens.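 Also: growth inhibition of human KLE cells, read out with a cell viability assay.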
Format: functional, cell-based
Description: SANGER: Inhibition of human KLE cell growth in a cell viability assay.
In the case of CCCCCCCCCCCC1=C(O)C(=O)C=C(O)C1=O [EMBELIN], the IC50 is reported as 24 µM.

These compounds were tested on LB771-HNC (assay: cells). Settings: Homo sapiens.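 Also: growth inhibition of LB771-HNC human cells, read out with a cell viability assay.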
Format: functional, cell-based
Description: SANGER: Inhibition of human LB771-HNC cell growth in a cell viability assay.
With CCCCCCCCCCCC1=C(O)C(=O)C=C(O)C1=O [EMBELIN] the IC50 was greater than 32 µM.

— ChEMBL document CHEMBL1201861, “Genomics of Drug Sensitity in Cancer screening data, Wellcome Trust Sanger Institute”
